The values below come from a melting point compilation (Tetko et al.; mined from patent text by program, amines drawn as free bases though some values may be those of a salt).

Broadly, the melting point is the temperature, or range, at which the solid turns liquid.

Some results are limits rather than exact numbers.

`N#Cc1cc([N+](=O)[O-])ccc1Oc1c(F)c(F)c(F)c(F)c1F` displayed a melting point of 128 to 129 °C. Then `NC1=NC(c2ccc(OC(F)(F)F)cc2)(c2ccc(F)c(N3C=C(F)C=NC3)c2)C2=NCCCN12` (stereo unspecified), with 94 to 105 °C; and `CCOC(=O)c1cn(-c2ccc(F)cc2F)c2nc(OS(=O)(=O)c3ccccc3[N+](=O)[O-])c(F)cc2c1=O`, with 157 to 160 °C. Then `O=C1Nc2cc(NC(=O)c3c[nH]cc(-c4cccc(Cl)c4)c3=O)ccc2/C1=C/c1ccc[nH]1`, with greater than 300 °C; and `c1ccc(Oc2nnns2)cc1`, with 35 to 36 °C. Then `FC(F)(F)c1cc(C(F)(F)F)cc(P(=S)(S)c2cc(C(F)(F)F)cc(C(F)(F)F)c2)c1`, with 72 to 74 °C. In turn, `CON1C(=O)CC2(CCN(C(=O)C3=CN(Cc4ccccc4)C=CC3)CC2)C1=O` displayed a melting point of 57 to 73 °C. Then `O=C(CSc1nc2ccccc2[nH]1)c1ccc2[nH]c3ncc(Cl)cc3c2c1`, with 209 to 210 °C; and `O=C(C=NO)Nc1ccc(F)c(F)c1`, with 148 to 150 °C.

Regarding `Cc1cc(Nc2c(C#N)cnc3cc(-c4csc(C5OCCO5)c4)ccc23)ccc1OCc1ccccn1`, the melting point lay within 194 to 196 °C.

`CN(C)CCCOc1ccc(-c2n[nH]c3ncccc23)cc1` returned a melting point of 176 to 177 °C. Then `NCC1CCn2c(cc3ccccc32)C1` (stereo unspecified), with 85 to 90 °C; and `Nn1cccc1-c1ccccc1`, with 80 to 82 °C; and `NC(=O)C1=CN(CCC(=O)NCCc2ccccc2)C=CC1`, with 121 to 123 °C. Then `CCC1C(=O)Nc2ccc3ccccc3c21` (stereo unspecified), with 124 to 126 °C.

The compound `COC(=O)C1CCN2C(=O)C(=O)c3cccc1c32` (stereo unspecified) came in with a melting point of 135 to 136 °C. Consider `O=C1c2ccccc2C(=O)N1CCc1ccc(OC(F)(F)F)c(OC(F)(F)F)c1`, for which the melting point fell in the range of 60 to 61 °C. Then `O=CN1CCc2cc(O)ccc2C1`, with 186 °C; and `COc1ccc(CC#N)cc1C(=O)NCc1ccc(C(F)(F)F)cc1`, with 124 to 125 °C; and `CCCc1nc2c(N)nc3ccccc3c2n1CCCC1(O)CCCCC1`, with 200 to 202 °C. Then `C=CCc1cc2c(cc1O)CCC(=O)N2CC=Cc1ccccc1`, with 199 to 203 °C; and `NC(=O)c1ccc(OC(F)(F)F)c(Cl)c1`, with 98 °C; and `Cc1ccc2cc(NC(=O)c3cccc(CCc4cc(Nc5ccccc5)n[nH]4)c3)ccc2n1`, with 98 to 102 °C. Then `N#Cc1ccc2[nH]nc(-c3ccccc3)c2c1`, with 150 to 151 °C; and `COc1ccc(-n2c(CC(=O)O)c(C(=O)O)c3cc(Oc4ccc(C(F)(F)F)cc4)ccc32)cc1`, with 248 to 250 °C. The compound `CCNC(=O)N(C)C(=O)Nc1ccccc1` came in with a melting point of 80.5 to 81.5 °C. `COc1cc(NC(=O)OC(C)(C)C)c([N+](=O)[O-])cc1I` came in with a melting point of 171 °C. Take `CC(c1ccc(OC(=O)CCl)cc1)(c1ccc(OC(=O)CCl)cc1)c1ccc(OC(=O)CCl)cc1`: the melting point fell in the range of 144 to 146 °C. Then `CN(C)S(=O)(=O)c1ccc2c(c1)S(=O)(=O)NC1CCCN21` (stereo unspecified), with 240 to 243 °C; and `O=C(O)COc1ccc(-c2ccccc2OC2OC(CO)C(O)C(O)C2O)cc1` (stereo unspecified), with 145 to 146 °C. Then `N#Cc1ccc(NC(=O)c2cccc(S(=O)(=O)N3CCOCC3)c2)c(-c2n[nH]c(=O)o2)c1`, with 283 to 285 °C; and `COc1ccc(S(=O)(=O)NC(C)c2ccccc2-c2ccc(F)cc2F)cc1` (stereo unspecified), with 154 to 155 °C; and `CC1COc2c(F)c(F)cc(C(=O)O)c2N1` (stereo unspecified), with 200 to 202 °C. Then `CSCc1cc(=O)c2ccc(OCc3ccccc3)c(C)c2o1`, with 110 to 114 °C; and `COc1cc(OC)c(-c2cccs2)cc1/C=C/C(=O)c1ccc(S(=O)(=O)Nc2ccc(C(F)(F)F)cn2)cc1`, with 228 to 229 °C; and `c1cncc(-c2cc(C3CCN(CCc4cccc5ccccc45)CC3)n[nH]2)c1`, with 171 to 173 °C. In turn, `COc1cc(C(=O)O)ccc1Cn1ncc2ccc(NC(=O)CC3CCCC3)cc21` yielded a melting point of 254 to 256 °C.

Consider `CCCCCCCCCCCCCCOc1ccc(CN)cc1`, for which the melting point fell in the range of 62 to 64 °C. Then `COc1cc2ncc(O[C@H]3CC[C@@H](OC(C)=O)CC3)nc2cc1OC`, with 150 to 152 °C; and `O=C1C(O)=C(c2ccccc2)CN1Cc1ccco1`, with 222 to 226 °C; and `C=CCN(c1nc(-c2cc3ccccc3[nH]c2=O)cs1)S(=O)(=O)c1ccccc1`, with 214 to 216 °C. Then `Cn1cc(C(=O)NCc2ccc(Cl)cc2)c(=O)c2cc(C#CCO)sc21`, with 206 to 208 °C; and `CCCN(CCCCc1c[nH]c2ccc(F)cc12)C1COc2c(F)ccc(C(N)=O)c2C1` (stereo unspecified), with 115 °C. Then `O=C1c2ccccc2CN1c1cccc(CCN2CCN(c3nsc4ccccc34)CC2)c1`, with 154 to 155 °C; and `O=C(CCCN1CCC(c2ccccc2Cc2ccccc2)CC1)c1ccc(F)cc1`, with 100 to 102 °C; and `CCOC(=O)c1cc(=O)c2c(OCCOc3ccc4c(c3)OCO4)cccc2o1`, with 161 to 162 °C. `NCCN1CCN(c2ncc3ncnc(Nc4ccc(F)c(Cl)c4)c3n2)CC1`: the melting point is 175 to 180 °C. In the case of `CC(C)c1ccc(-c2c(Cl)c(CCl)nc3sc4c(c23)CCN(Cc2ccccc2)C4)cc1`, the melting point was in the range of 190 to 192 °C. Then `CC(C)(C)OC(=O)NCCCCC(NC(=O)OCc1ccccc1)C(N)=O` (stereo unspecified), with 140 to 142 °C. Then `O=C1c2c(Cl)cccc2-n2cnc(-c3cnco3)c2[C@@H]2CCCN12`, with 201 to 202 °C.

In turn, `Cc1oc(-c2ccccc2)nc1COc1ccc(COc2ccc(O)cc2CC(=O)O)cc1` displayed a melting point of 194 to 195 °C. Then `C=CCn1nc(C(=O)NC)cc1OCCCN1CCN(c2cccc3sccc23)CC1`, with 138 to 140 °C; and `CCCOc1ccccc1-c1nc(O)cc(C(=O)O)n1`, with 180 to 182 °C; and `CCOC(=O)c1nccn1C1Cc2ccc(Cl)c(Cl)c2C1=O` (stereo unspecified), with 90 °C. Then `CCOC(=O)C1=C(NC(=O)Nc2cc(C(=O)OC(C)C)c(Br)cc2Cl)CCC1`, with 131 to 132 °C; and `O=C1C(=O)c2ccccc2C2=C1SCC1(CCN(C3CCCCC3)CC1)O2`, with 195 to 196 °C.

`Clc1ccc(-n2ccc(OCc3ccccc3Br)n2)cc1` registered a melting point of 45 °C. Then `CCOC(=O)COc1c(OC)cc(Cl)c2c1CN1CCc3cc(OC)c(OCc4ccccc4)cc3C1C2` (stereo unspecified), with 134 °C; and `COc1ccc2c(Cl)nc(Cl)nc2c1OC`, with 153 to 155 °C; and `Nc1nc2c(ncn2COC(CC(=O)OC23CC4CC(CC(C4)C2)C3)CC(=O)OC23CC4CC(CC(C4)C2)C3)c(=O)[nH]1` (stereo unspecified), with 283 to 285 °C. In the case of `O=C(O)CCCc1cc2nc(C(F)(F)F)ccc2n1S(=O)(=O)c1ccccc1`, the melting point amounted to 168 °C. Then `CN1C(=O)C(NC(=O)Oc2ccc([N+](=O)[O-])cc2)N=C(c2ccccc2F)c2ccccc21` (stereo unspecified), with 202 to 204 °C; and `Cc1ccc2c(C(=O)O)cn(C(C)C)c2c1`, with 185 to 186 °C; and `CNCCOc1ccc(NC(=O)c2ccc(N3CCNCC3)cc2)c(C)c1`, with 136 to 137 °C. Then `CNS(=O)(=O)Cc1ccc2[nH]cc(CC(=O)O)c2c1`, with 126 to 133 °C. Then `CNC(=O)[C@@H]1C[C@@H](OC)CN1S(=O)(=O)c1ccc(Cl)c(COc2cccc3c2NC(C)(C)C=C3n2cncn2)c1Cl`, with 73 °C. `CC(=O)NC[C@H]1CN(c2ccc(N3CCN(CCN4CCOCC4)CC3)c(F)c2)C(=O)O1` yielded a melting point of 150 to 152 °C.

For `CC(C)(C)CC(C)(C)Nc1nc(NC(C)(C)C(C)(C)C)nc(N2CC3CCC(CC3)C2)n1`, the melting point was 98 to 102 °C.

`Fc1ccc(C(F)(F)C(F)(F)c2ccccc2Br)cc1` came in with a melting point of 52 to 53.5 °C.

Compound `Cc1ccc(C(=O)c2cc(Br)c(CC(=O)O)n2C)cc1` showed a melting point of 162 to 164 °C. Then `CC(C)c1cccc(C(C)C)c1NC(=O)C(Cc1ccccc1)NCc1ccccc1` (stereo unspecified), with 120 to 124 °C; and `COc1cccc(NC(=O)c2ccc(C(=O)N3CCCc4ccccc43)cc2)c1`, with 154 to 155 °C; and `CCOCc1nc2c(N)nc3ccc(OCc4ccccc4)cc3c2n1CCCCNC(=O)N1CCOCC1`, with 150 to 153 °C.

Turning to `CN(C)c1ccc(NC(=O)N(Cc2ccccc2)C[C@H]2CC[C@H](CN(Cc3ccccc3)C(=O)Nc3ccc(N(C)C)cc3)CC2)cc1`, the melting point is 142 to 144 °C.

The compound `Nn1c(C2CC2)n[nH]c1=O` came in with a melting point of 183 °C. `Cc1nc2c(ncn2COCCO)c(=S)[nH]1` gave a melting point of 190 to 193 °C. With `CCOC(=O)c1c(C)nc2c(ncn2C)c1OCCC(C)C`, the melting point lay in the range of 64 to 66 °C. Then `C[Si](C)(C)C#Cc1cnn2c(C(F)(F)F)cc(-c3ccc(C(F)(F)F)cc3)nc12`, with 136 °C; and `CCC(C)c1ccccc1Sc1c(O)cc(-c2ccccc2)oc1=O` (stereo unspecified), with 170 to 171 °C. Then `c1nc(SCC2CCCCC2)n[nH]1`, with 74 to 78 °C; and `COc1cc2c(cc1OC)[C@@H]1CN(C)CC[C@@H]1N=C2c1ccc(Cl)c(Cl)c1` (relative stereo), with 183 to 184 °C. Then `Cc1ccccc1-c1cc(Cl)cc2c1NC(CN)CO2` (stereo unspecified), with 86 °C; and `O=C(O)Cc1ccc(Br)c(O)c1Br`, with 186 °C; and `COc1ccc(C2=NN(C3CCCCCC3)C(=O)[C@H]3CC=CC[C@@H]23)cc1OCC1CC1` (relative stereo), with 102 to 103 °C.

As for `CCCCn1ncc(/C=C(\Cc2cc3c(cc2OC)CCO3)C(=O)OCC)c1-c1ccc(Cl)cc1O`, the melting point lay in the range of 158 to 160 °C. Then `O=C(Nc1nc(-c2ccco2)c(C(=O)c2cc[nH]c2)s1)c1ccncc1`, with 259 to 260 °C.
